# Experimental data published in patent US8288424B2, “Substituted tetrahydroimidazopyridine compounds and the use thereof in the treatment of pain and other conditions” (Gruenenthal GmbH, priority 2008, dated 2012).
# Target: T1, KCNQ2/3 channels (Homo sapiens, UniProt O43525+O43526)
# T1 construct: expressed in transfected cells; host or cells: CHO-K1
# Assay: Fluorescence assay using a voltage-sensitive dye
# Type: cell-based
# Conditions: 10 μmol test substance; CHO-K1 cells expressing KCNQ2/3 channels; agonistic activity; read-out: % Stimulation [10 μmol] Average
# Description: Fluorescence Assay Using a Voltage-Sensitive Dye
# […] CHO-K1 cells expressing KCNQ2/3 channels are cultivated adherently at 37° C., 5% CO2 and 95% humidity in cell culture bottles (e.g. 80 cm^2 TC flasks, Nunc) with MEM Alpha Medium (1×, liquid, Invitrogen, #22571), 10% foetal calf serum (FCS) (Invitrogen, #10270-106, heat-inactivated) and the necessary selection antibiotics. Before being spread out for the measurements, the cells are washed with a 1×DPBS buffer without Ca^2+/Mg^2+ (e.g. Invitrogen, #14190-094) and detached from the bottom of the culture vessel by means of Accutase (PAA Laboratories, #L11-007) (incubation with Accutase for 15 min at 37° C.). The cell count then present is determined using a CASY™ cell counter (TCC model, Schärfe System) in order subsequently to apply 20,000 cells/well/100 μl of the described nutrient medium to 96-well measuring plates of the Corning™ CellBIND™ type (flat clear-bottom black polystyrene microplates, #3340). Incubation is then carried out for one hour at room temperature, without gassing or adjusting the humidity, followed by incubation for 24 hours at 37° C., 5% CO2 and 95% humidity.
# The voltage-sensitive fluorescent dye from the Membrane Potential Assay Kit (Red bulk format part R8123 for FLIPR, Molecular Devices™) is prepared by dissolving the contents of a vessel of Membrane Potential Assay Kit Red Component A in 200 ml of extracellular buffer (ES buffer, 120 mM NaCl, 1 mM KCl, 10 mM HEPES, 2 mM CaCl2, 2 mM MgCl2, 10 mM glucose; pH 7.4). After removal of the nutrient medium, the cells are washed with 200 μl of ES buffer, then covered with a layer of 100 μl of the dye solution prepared above and incubated for 45 min at room temperature with exclusion of light.
# The fluorescence measurements are carried out with a BMG Labtech FLUOstar™ or BMG Labtech POLARstar™ instrument (525 nm excitation, 560 nm emission, bottom-read mode). After incubation of the dye, 50 μl of the substances to be tested in the desired concentrations, or 50 μl of ES buffer for control purposes, are introduced into separate cavities of the measuring plate and incubated for 30 min at room temperature whilst being shielded from light. The fluorescence intensity of the dye is then measured for 5 min and the fluorescence value F1 of each well is thus determined at a given, constant time. 15 μl of a […] KCl solution ([…]) are then added to each well. The change in fluorescence is subsequently measured until all relevant measured values have been obtained (mainly 5-30 min). At a given time after KCl application, a fluorescence value F2 is determined, in this case at the time of the fluorescence peak.
# For calculation, the fluorescence intensity F2 is compared with the fluorescence intensity F1, and the agonistic activity of the target compound on the potassium channel is determined therefrom. F2 and F1 are calculated as follows:
# [formula] In order to determine whether a substance has an agonistic activity,
# [formula] for example, can be compared with
# [formula] of control cells.
# [formula] is determined by adding to the reaction batch only the buffer solution instead of the substance to be tested, determining the value F1K of the fluorescence intensity, adding the potassium ions as described above and measuring a value F2K of the fluorescence intensity. Then F2K and F1K are calculated as follows:
# [formula] A substance has an agonistic activity on the potassium channel when
# [formula] is greater than
# [formula] Independently of the comparison of
# [formula] it is also possible to conclude that a target compound has an agonistic activity if an increase in
# [formula] is to be observed as the dosage of the target compound increases. Calculations of EC50 and IC50 values are carried out with the aid of Prism 4 software (GraphPad Software™).
row,activation at 10 µM,Compound
1,82.2%,"O=C(c1cn2c(n1)CCC(c1cccc(F)c1)C2)N1CCC(Cc2ccccc2)CC1 (stereo not shown) [Compound 61, (4-Benzylpiperidin-1-yl)(6-(3-fluorophenyl)-5,6,7,8-tetrahydroimidazo[1,2-a]pyridin-2-yl)methanone]"
2,40.8%,"Cc1cc(C2CCc3nc(C(=O)N4CCN(c5ccc(C(F)(F)F)cc5)CC4)cn3C2)ccc1F (stereo not shown) [Compound 62, (6-(4-Fluoro-3-methylphenyl)-5,6,7,8-tetrahydroimidazo[1,2-a]pyridin-2-yl)(4-(4-(trifluoromethyl)phenyl)piperazin-1-yl)methanone]"
3,96.7%,"Cc1cc(C2CCc3nc(C(=O)N4CCN(c5ccc(F)cc5)CC4)cn3C2)ccc1F (stereo not shown) [Compound 63, (6-(4-Fluoro-3-methylphenyl)-5,6,7,8-tetrahydroimidazo[1,2-a]pyridin-2-yl)(4-(4-fluorophenyl)piperazin-1-yl)methanone]"
4,46.7%,"Cc1ccc(N2CCN(C(=O)c3cn4c(n3)CCC(c3ccc(F)c(C)c3)C4)CC2)cc1 (stereo not shown) [Compound 64, (6-(4-Fluoro-3-methylphenyl)-5,6,7,8-tetrahydroimidazo[1,2-a]pyridin-2-yl)(4-(4-methylphenyl)piperazin-1-yl)methanone]"
5,132%,"Cc1cccc(N2CCN(C(=O)c3cn4c(n3)CCC(c3ccc(F)c(C)c3)C4)CC2)c1 (stereo not shown) [Compound 65, (6-(4-Fluoro-3-methylphenyl)-5,6,7,8-tetrahydroimidazo[1,2-a]pyridin-2-yl)(4-(3-methylphenyl)piperazin-1-yl)methanone]"
6,33.3%,"Cc1cc(C2CCc3nc(C(=O)N4CCC(C(c5ccccc5)c5ccccc5)CC4)cn3C2)ccc1F (stereo not shown) [Compound 67, (4-Benzhydrylpiperidin-1-yl)(6-(4-fluoro-3-methylphenyl)-5,6,7,8-tetrahydroimidazo[1,2-a]pyridin-2-yl)methanone]"
7,25.1%,"Cc1cc(C2CCc3nc(C(=O)NCC4CCCCC4)cn3C2)ccc1F (stereo not shown) [Compound 68, N-(Cyclohexylmethyl)-6-(4-fluoro-3-methylphenyl)-5,6,7,8-tetrahydroimidazo[1,2-a]pyridine-2-carboxamide]"
8,30.1%,"COc1ccc(C2CCc3nc(C(=O)N4CCN(c5cccc(C(F)(F)F)c5)CC4)cn3C2)cc1 (stereo not shown) [Compound 69, (6-(4-Methoxyphenyl)-5,6,7,8-tetrahydroimidazo[1,2-a]pyridin-2-yl)(4-(3-(trifluoromethyl)phenyl)piperazin-1-yl)methanone]"
9,123%,"Cc1cccc(C2CCc3nc(C(=O)N4CCC(Cc5ccccc5)CC4)cn3C2)c1 (stereo not shown) [Compound 70, (4-Benzylpiperidin-1-yl)(6-m-tolyl-5,6,7,8-tetrahydroimidazo[1,2-a]pyridin-2-yl)methanone]"
10,115%,"COc1cccc(C2CCc3nc(C(=O)N4CCN(c5cccc(C(F)(F)F)c5)CC4)cn3C2)c1 (stereo not shown) [Compound 71, (6-(3-Methoxyphenyl)-5,6,7,8-tetrahydroimidazo[1,2-a]pyridin-2-yl)(4-(3-(trifluoromethyl)phenyl)piperazin-1-yl)methanone]"
11,103%,"Cc1cc(C2CCc3nc(C(=O)NC(C)CCc4ccccc4)cn3C2)ccc1F (stereo not shown) [Compound 72, 6-(4-Fluoro-3-methylphenyl)-N-(4-phenylbutan-2-yl)-5,6,7,8-tetrahydroimidazo[1,2-a]pyridine-2-carboxamide]"
12,88.8%,Cc1ccc(C2CCc3nc(C(=O)N4CCC(Cc5ccccc5)CC4)cn3C2)cc1 (stereo not shown) [Compound 73]
13,51.9%,"Cc1ccc(C2CCc3nc(C(=O)N4CCN(c5cccc(C(F)(F)F)c5)CC4)cn3C2)cc1 (stereo not shown) [Compound 74, (6-p-Tolyl-5,6,7,8-tetrahydroimidazo[1,2-a]pyridin-2-yl)(4-(3-(trifluoromethyl)phenyl)piperazin-1-yl)methanone]"
14,127%,"Cc1cccc(C2CCc3nc(C(=O)N4CCN(c5cccc(C(F)(F)F)c5)CC4)cn3C2)c1 (stereo not shown) [Compound 75, (6-m-Tolyl-5,6,7,8-tetrahydroimidazo[1,2-a]pyridin-2-yl)(4-(3-(trifluoromethyl)phenyl)piperazin-1-yl)methanone]"
15,65.1%,"COc1ccc(C2CCc3nc(C(=O)N4CCC(Cc5ccccc5)CC4)cn3C2)cc1 (stereo not shown) [Compound 76, (4-Benzylpiperidin-1-yl)(6-(4-methoxyphenyl)-5,6,7,8-tetrahydroimidazo[1,2-a]pyridin-2-yl)methanone]"
16,29.7%,"Cc1cc(C)cc(C(C)NC(=O)c2cn3c(n2)CCC(c2ccc(F)c(C)c2)C3)c1 (stereo not shown) [Compound 78, N-(1-(3,5-Dimethylphenyl)ethyl)-6-(4-fluoro-3-methylphenyl)-5,6,7,8-tetrahydroimidazo[1,2-a]pyridine-2-carboxamide]"
17,125%,"O=C(c1cn2c(n1)CCC(c1ccc(F)c(F)c1)C2)N1CCN(c2cccc(C(F)(F)F)c2)CC1 (stereo not shown) [Compound 79, (6-(3,4-Difluorophenyl)-5,6,7,8-tetrahydroimidazo[1,2-a]pyridin-2-yl)(4-(3-(trifluoromethyl)phenyl)piperazin-1-yl)methanone]"

# Same assay, conditions: CHO-K1 cells expressing KCNQ2/3 channels; agonistic activity
row,EC50,Compound
1,8.34 µM,"O=C(c1cn2c(n1)CCC(c1ccccc1)C2)N1CCN(c2cccc(C(F)(F)F)c2)CC1 (stereo not shown) [Compound 53, (6-Phenyl-5,6,7,8-tetrahydroimidazo[1,2-a]pyridin-2-yl)(4-(3-(trifluoromethyl)phenyl)piperazin-1-yl)methanone]"
2,2.45 µM,"COc1c(C)cc(C2CCc3nc(C(=O)N4CCN(c5cccc(C(F)(F)F)c5)CC4)cn3C2)cc1C (stereo not shown) [Compound 54, (6-(4-Methoxy-3,5-dimethylphenyl)-5,6,7,8-tetrahydroimidazo[1,2-a]pyridin-2-yl)(4-(3-(trifluoromethyl)phenyl)piperazin-1-yl)methanone]"
3,5.42 µM,"COc1c(C)cc(C2CCc3nc(C(=O)N4CCC(Cc5ccccc5)CC4)cn3C2)cc1C (stereo not shown) [Compound 55, (4-Benzylpiperidin-1-yl)(6-(4-methoxy-3,5-dimethylphenyl)-5,6,7,8-tetrahydroimidazo-[1,2-a]pyridin-2-yl)methanone]"
4,11.3 µM,"COc1c(C)cc(C2CCc3nc(C(=O)N4CC5(C)CC4CC(C)(C)C5)cn3C2)cc1C (stereo not shown) [Compound 56, (6-(4-Methoxy-3,5-dimethylphenyl)-5,6,7,8-tetrahydroimidazo[1,2-a]pyridin-2-yl)(1,3,3-trimethyl-6-azabicyclo[3.2.1]octan-6-yl)methanone]"
5,9.71 µM,"Cc1cc(C2CCc3nc(C(=O)N4CCC(Cc5ccccc5)CC4)cn3C2)ccc1F (stereo not shown) [Compound 57, (4-Benzylpiperidin-1-yl)(6-(4-fluoro-3-methylphenyl)-5,6,7,8-tetrahydroimidazo[1,2-a]pyridin-2-yl)methanone]"
6,4.46 µM,"Cc1cc(C2CCc3nc(C(=O)N4CCN(c5cccc(C(F)(F)F)c5)CC4)cn3C2)ccc1F (stereo not shown) [Compound 58, (6-(4-Fluoro-3-methylphenyl)-5,6,7,8-tetrahydroimidazo[1,2-a]pyridin-2-yl)(4-(3-(trifluoromethyl)phenyl)piperazin-1-yl)methanone]"
7,6.4 µM,"COc1cccc(C2CCc3nc(C(=O)NC(C)CCc4ccccc4)cn3C2)c1 (stereo not shown) [Compound 60, 6-(3-Methoxyphenyl)-N-(4-phenylbutan-2-yl)-5,6,7,8-tetrahydroimidazo[1,2-a]pyridine-2-carboxamide]"
8,0.08 µM,"Cc1cc(C)cc(C2CCc3nc(C(=O)N4CCN(c5cccc(C(F)(F)F)c5)CC4)cn3C2)c1 (stereo not shown) [Compound 77, (6-(3,5-Dimethylphenyl)-5,6,7,8-tetrahydroimidazo[1,2-a]pyridin-2-yl)(4-(3-(trifluoromethyl)phenyl)piperazin-1-yl)methanone]"
